Laboratory results as given in patent US20020115703A1, “Prevention of development of dyskinesias” (priority 2000, published 2002).

Test system: locomotor hyperactivity induced by repeated administration of D-amphetamine
Assay: Locomotor (ambulatory) activity after repeated D-amphetamine administration (behavioral sensitization), photobeam activity system
Type: in vivo, mice
Description: The effects of atipamezole on the locomotor hyperactivity induced by repeated administration of D-amphetamine were studied in male mice.
Experiments were performed with C57BL/ 6J strain male mice from Jackson Laboratories. Mice were transferred to the laboratory at least 2 weeks prior to use. The mice were from 8 to 20 weeks of age at the beginning of an experiment. Groups of 10 mice were housed in standard polypropylene cages (38×22×15 cm) with free access to standard certified pelleted food (RM1 Maintenance Expanded SQC; Special Diet Services, Essex, UK) and water. Ambient temperature was 22±1 C.°, and a 12:12 h light dark cycle was maintained with lights on at 6 A.M. All experiments were carried out between 7 A.M. 1 and 5 P.M. The animal care was performed in accordance with International Council for Laboratory Animal Science (ICLAS) guidelines.
D-Amphetamine sulphate (Sigma, St. Louis, Mo., U.S.A.) and atipamezole HCl (Orion Corporation, Orion Pharma, Turku, Finland) were dissolved in saline (0.9% NaCl) and administered subcutaneously (s.c.) in a 5 ml kg volume.
The locomotor activity of the mice was measured in transparent standard polypropylene animal cages (38×22×15 cm) with transparent covers and aspen bedding on the floors. Test cages were placed in the middle of the photobeam frame system (Photobeam Activity System PAS, Cage Rack, San Diego Instruments, San Diego, Calif.). A computer control unit registered the interruptions of photobeams from 16 individual cages. Three different types of movements were monitored: 1) ambulations (large horizontal movements), 2) fine movements (smaller horizontal movements), and 3) rearings (vertical movements). Locomotor activity was measured at 5-min intervals for 2 h immediately after D-amphetamine or saline administrations.
D-amphetamine was administered subcutaneously (s.c.) at a dose of 2 mg/kg. Atipamezole was administered s.c. at a dose of 1 mg/kg 20 min before locomotor activity measurement.
In the chronic treatment group, mice were administered the dose during eight days to elicit provoked locomotor hyperactivity to D-amphetamine and the effect of the atipamezole to the locomotor activity. Mice groups in the chronic treatment schedule were saline, saline-amphetamine, amphetamine, atipamezole and atipamezole-amphetamine. A day before experiment, mice were habituated to the test environment. Test groups with different drug treatments were administrated during four consecutive days. At days five and six, there were no drug administrations nor motor activity testing. At days seven and eight, the produced locomotor hyperactivity and effect of a single exposure of D-amphetamine (saline-amphetamine-group) were analysed. (Table 1).
At day nine, the effect of different atipamezole and amphetamine administrations to the locomotor activity on the chronic treatment groups were analysed. Treatments included saline, 1 mg/kg atipamezole, 2 mg/kg D-amphetamine, 0,3 mg/kg atipamezole- 2 mg/kg D-amphetamine and 1 mg/kg atipamezole- 2 mg/kg D-amphetamine. Chronic treatment groups were saline-, atipamezole-, amphetamine- and atipamezole-amphetamine groups. Chronic groups were treated following the schedule in Table 2.
All data are presented as mean ±SEM. Statistical analysis were performed using SPSS 9.0 for Windows (SPSS, Chicago, Ill.). Separate repeated measure analyses of variance (ANOVA) were performed on each variable for each experiment grouped on time and treatment group. Results were analysed separately, because data were collected in separate experiments with different study design. When significance (P<0.05) between treatment groups was found, comparisons at each time point (date or min) were analysed by using LSD post-hoc test.

Structure (SMILES) | ambulatory activity (2-h overall counts) during repeated administration (D-amphetamine 2 mg/kg s.c., six repeated administrations over days 1-8, compared to saline group, C57BL/6J male mice, FIG. 1) | ambulatory sensitization at Day 9 (chronic amphetamine group, repeated D-amphetamine 2 mg/kg (P<0.001), FIG. 2) | locomotor activity at Day 9, single D-amphetamine challenge (chronic saline group, D-amphetamine 2 mg/kg at Day 9 (P<0.001 vs saline), FIG. 2) | D-amphetamine induced locomotion at Day 9, chronic atipamezole-amphetamine group (atipamezole 1 mg/kg 20 min before D-amphetamine 2 mg/kg days 1-9, vs amphetamine-amphetamine group (P<0.001), FIG. 2) | D-amphetamine-induced locomotion, chronic atipamezole pre-treatment (atipamezole 1 mg/kg s.c. 20 min before D-amphetamine 2 mg/kg s.c. over days 1-8, vs amphetamine-amphetamine group, Day 2 P<0.05, Days 3-8 P<0.001, FIG. 1) | locomotor activity, atipamezole pre-treatment before saline challenge (atipamezole 1 mg/kg s.c. daily for six days, atipamezole-saline vs saline group at Day 8 (P=0.43), FIG. 1) | D-amphetamine-induced locomotor hyperactivity at Day 9 (expression of sensitization) (chronic amphetamine group, atipamezole 0.3 mg/kg 20 min before D-amphetamine 2 mg/kg at Day 9 (P=0.005), FIG. 2) | D-amphetamine-induced locomotor hyperactivity at Day 9 (expression of sensitization) (chronic amphetamine group, atipamezole 1 mg/kg 20 min before D-amphetamine 2 mg/kg at Day 9 (P<0.001), FIG. 2) | locomotor activity at Day 9 after chronic atipamezole (chronic atipamezole group (1 mg/kg days 1-8), before saline and D-amphetamine challenge at Day 9, FIG. 2) | development of sensitisation: locomotion at Day 9 with D-amphetamine only (chronic atipamezole-amphetamine group given only D-amphetamine 2 mg/kg at Day 9, vs amphetamine-amphetamine group (P=0.026), FIG. 2) | locomotor activity at Day 9, atipamezole before acute D-amphetamine (chronic saline group, atipamezole 0.3 mg/kg 20 min before D-amphetamine 2 mg/kg, compared to D-amphetamine alone (P=0.016), FIG. 2) | locomotor activity at Day 9, atipamezole before acute D-amphetamine (chronic saline group, atipamezole 1 mg/kg 20 min before D-amphetamine 2 mg/kg, compared to D-amphetamine alone (P=0.364), FIG. 2) | total ambulatory activity counts at Day 9, atipamezole alone (chronic saline group, atipamezole 1 mg/kg 20 min before saline at Day 9 (P=0.81), FIG. 2) | development and expression of sensitization (motor overactivity), overall finding (given chronically in combination with D-amphetamine, in mice)
C[C@H](N)Cc1ccccc1 [D-amphetamine] | progressive enhance in ambulatory activity | developed strong ambulatory sensitization | significantly enhanced locomotor activity | – | – | – | – | – | – | – | – | – | – | –
CCC1(c2cnc[nH]2)Cc2ccccc2C1 [atipamezole, 4-(2-ethyl-2,3-dihydro-1H-inden-2-y1)-1H-imidazole] | – | – | – | decreased significantly D-amphetamine induced locomotion | decreased significantly D-amphetamine-induced locomotion | not a statistically significant difference | clearly attenuated the D-amphetamine-induced locomotor hyperactivity | clearly attenuated the D-amphetamine-induced locomotor hyperactivity | the elevation was not statistically significant | true reduction in the development of sensitisation | amplified locomotor activity | had no effect | did not alter total ambulatory activity counts | reduces the development and expression of sensitization
